Columns and labels:
[1] = test system: DSM-IV PTSD criterion B symptoms of nightmares and intrusions (intrusive recollections/flashbacks); test: Naturalistic add-on/monotherapy topiramate trial in chronic PTSD patients; patient self-report of partial/full response of nightmares and intrusions (LOCF); format: in vivo, human
Source text: Thirty five (35) patients meeting DSM-IV criteria for chronic post-traumatic stress disorder (PTSD) were selected for a study of the effects of topiramate administration. […] The group with hallucinatory PTSD experienced auditory and/or visual hallucinations containing content specifically associated with identified traumatic events. Whether these were PTSD “flashbacks” or psychotic experiences were at times difficult to ascertain due to fluctuations in reality testing the hallucinations. For this reason, prior to being screened for PTSD, some patients had received psychiatric diagnoses of psychotic disorders despite meeting full diagnostic criteria for PTSD.
Topiramate was added naturalistically to existing pharmacotherapy (see Table 1 for concomitant medications at start of trial), starting at 25 mglday and increasing whenever possible by 25 to 50 mg/day every 3 to 4 days to clinical response. Target symptoms were DSM-IV PTSD criterion B symptoms of nightmares (N =24) and intrusions (intrusive recollections/flashbacks, N=35) involving re-experiencing of traumas. Definitions of improvement, as assessed from patient self-report, included “partial response” as “definite reduction in intensity and frequency of nightmares or intrusions”, and “full response” as “complete cessation of nightmares and intrusions for a sustained period”. Following the seminal observations, in order to systematically identify responsive symptoms, the next 17 patients completed a self-report scale, the PTSD Checklist—Civilian Version (PCL-C)15, at baseline and at 4 weeks after starting topiramate. The patients were instructed to complete the PCL-C for experiences corresponding to traumas consistent with DSM-IV criterion A for PTSD. Paired ttest scores for the PCL-C were calculated with Jandel SigmaStat® v. 2.0.
Response assessment, summarized in Table 4, used the Last Observation Carried Forward (LOCF) method, which includes all patients who entered the trial and their last reported condition while under active treatment. Overall, topiramate suppressed nightmares in 79% of patients ([…]; 5/28 partially), and intrusions in 86% (22/35 fully; 8/35 partially). Globally (i.e., in terms of suppression of both nightmares and intrusions), 22 patients (63%) reported a full response and 8 patients (23%) a partial response. Five patients discontinued without response, 1 at 5 days, and the remaining 4 after 4 weeks. The non-hallucinatory subgroup achieved a higher response rate (full: 79%; full/partial: 89%). All full responses occurred in the non-hallucinatory subgroup. Benefit usually occurred within 2 to 3 days of reaching an effective dose. A full response to topiramate was reported for 10 patients within 1 week of treatment, and for 3 additional patients by the third week of treatment.

kindled epilepsy = conditions: in vivo; cited from earlier work
[2] = All Patients (N = 35), both nightmares and intrusions
[3] = All Patients (N = 35), both nightmares and intrusions, listed as topiramate
[4] = All Patients (N = 35), either nightmares or intrusions
[5] = All Patients (N = 35), either nightmares or intrusions, listed as topiramate
[6] = All Patients (N = 35), listed as topiramate
[7] = All Patients (N = 35), partial + full response
[8] = All Patients (N = 35), partial + full response, listed as topiramate
[9] = Non-Hallucinatory PTSD, Bipolar Disorder (N = 8)
[10] = Non-Hallucinatory PTSD, Bipolar Disorder (N = 8), listed as topiramate
[11] = Non-Hallucinatory PTSD, Non-Bipolar Disorder (N = 20)
[12] = Non-Hallucinatory PTSD, Non-Bipolar Disorder (N = 20), listed as topiramate
[13] = Patients with Hallucinatory PTSD (N = 7)
[14] = Patients with Hallucinatory PTSD (N = 7), listed as topiramate
[15] = Patients with Non-Hallucinatory PTSD, Total (N + 28)
[16] = Patients with Non-Hallucinatory PTSD, Total (N + 28), listed as topiramate

SMILES: CC1(C)O[C@@H]2[C@@H](CO[C@@]3(COS(N)(=O)=O)OC(C)(C)O[C@@H]23)O1 [Topiramate, 2,3:4,5-bis-O-(1-methylethylidene)-β-D-fructopyranose sulfamate]
- Share of partial responders with response at a dosage of 75 mg/day or less ([1]; 75 mg/day or less): 95%
- Share of full responders with response at a dosage of 100 mg/day or less ([1]; 100 mg/day or less): 91%
- Patients discontinued without response ([1]; 1 at 5 days, remaining 4 after 4 weeks): Five
- Dosage of topiramate, Full response, mean ± SD ([1]; All Patients (N = 35)): 78.6 mg/day
- Dosage of topiramate, Full response, median ([1]; All Patients (N = 35)): (50.0) mg/day
- Dosage of topiramate, Partial response (threshold dosage), mean ± SD ([1]; All Patients (N = 35)): 41.7 mg/day
- Dosage of topiramate, Partial response, median ([1]; All Patients (N = 35)): (25.0) mg/day
- Suppression of intrusions, Full (number of patients) ([1]; All Patients (N = 35)): 22
- Suppression of intrusions, Partial (number of patients) ([1]; All Patients (N = 35)): 8
- Suppression of nightmares, Full (number of patients) ([1]; All Patients (N = 35)): 14
- Suppression of nightmares, Partial (number of patients) ([1]; All Patients (N = 35)): 5
- Time to onset of response, Full, mean ± SD [1, 2]: 35.3 days
- Time to onset of response, Full, median [1, 2]: (8.0) days
- Time to onset of response, Full, mean ± SD [1, 3]: 35 ± 48.6 days
- Time to onset of response, Full, median [1, 3]: 8.0 days
- Time to onset of response, Partial, mean ± SD [1, 4]: 10.9 days
- Time to onset of response, Partial, median [1, 4]: (4.0) days
- Time to onset of response, Partial, mean ± SD [1, 5]: 11 ± 13.1 days
- Time to onset of response, Partial, median [1, 5]: 4.0 days
- Dosage of topiramate, Full response, mean ± SD [1, 6]: 79 ± 113.8 mg/day
- Dosage of topiramate, Full response, median [1, 6]: 50.0 mg/day
- Dosage of topiramate, Partial response (threshold dosage), mean ± SD [1, 6]: 42 ± 31.7 mg/day
- Dosage of topiramate, Partial response, median [1, 6]: 25.0 mg/day
- Suppression of intrusions (N = 35) [1, 7]: 86%
- Suppression of nightmares (N = 24) [1, 7]: 79%
- Suppression of intrusions (N = 35) [1, 8]: 86%
- Suppression of nightmares (N = 24) [1, 8]: 79%
- Dosage of topiramate, Full response, mean ± SD [1, 9]: 154.2 mg/day
- Dosage of topiramate, Full response, median [1, 9]: (37.5) mg/day
- Dosage of topiramate, Partial response (threshold dosage), mean ± SD [1, 9]: 58.3 ± 14.4 mg/day
- Dosage of topiramate, Partial response, median [1, 9]: (50.0) mg/day
- Suppression of intrusions (N = 35) [1, 9]: 88% (7/8)
- Suppression of intrusions, Full (number of patients) [1, 9]: 6
- Suppression of intrusions, Partial (number of patients) [1, 9]: 1
- Suppression of nightmares (N = 24) [1, 9]: 83% (5/6)
- Suppression of nightmares, Full (number of patients) [1, 9]: 4
- Suppression of nightmares, Partial (number of patients) [1, 9]: 1
- Time to onset of response, Full, mean ± SD [1, 9]: 43.3 ± 62.5 days
- Time to onset of response, Full, median [1, 9]: (6.0) days
- Time to onset of response, Partial, mean ± SD [1, 9]: 17.3 ± 13.5 days
- Time to onset of response, Partial, median [1, 9]: (17.0) days
- Dosage of topiramate, Full response, mean ± SD [1, 10]: 154 ± 200.9 mg/day
- Dosage of topiramate, Full response, median [1, 10]: 37.5 mg/day
- Dosage of topiramate, Partial response (threshold dosage), mean ± SD [1, 10]: 58 ± 14.4 mg/day
- Dosage of topiramate, Partial response, median [1, 10]: 50.0 mg/day
- Dosage of topiramate, Full response, mean ± SD [1, 11]: 48.3 mg/day
- Dosage of topiramate, Full response, median [1, 11]: (50.0) mg/day
- Dosage of topiramate, Partial response (threshold dosage), mean ± SD [1, 11]: 26.9 mg/day
- Dosage of topiramate, Partial response, median [1, 11]: (25.0) mg/day
- Suppression of intrusions (N = 35) [1, 11]: 90%
- Suppression of intrusions, Full (number of patients) [1, 11]: 16
- Suppression of intrusions, Partial (number of patients) [1, 11]: 2
- Suppression of nightmares (N = 24) [1, 11]: 85%
- Suppression of nightmares, Full (number of patients) [1, 11]: 10
- Suppression of nightmares, Partial (number of patients) [1, 11]: 1
- Time to onset of response, Full, mean ± SD [1, 11]: 32.1 days
- Time to onset of response, Full, median [1, 11]: (10.0) days
- Time to onset of response, Partial, mean ± SD [1, 11]: 8.6 days
- Time to onset of response, Partial, median [1, 11]: (3.5) days
- Dosage of topiramate, Full response, mean ± SD [1, 12]: 48 ± 25.4 mg/day
- Dosage of topiramate, Full response, median [1, 12]: 50.0 mg/day
- Dosage of topiramate, Partial response (threshold dosage), mean ± SD [1, 12]: 30 ± 11.2 mg/day
- Dosage of topiramate, Partial response, median [1, 12]: 25.0 mg/day
- Dosage of topiramate, Partial response (threshold dosage), mean ± SD [1, 13]: 70.0 ± 51.2 mg/day
- Dosage of topiramate, Partial response, median [1, 13]: (75.0) mg/day
- Suppression of intrusions (N = 35) [1, 13]: 71% (5/7)
- Suppression of intrusions, Full (number of patients) [1, 13]: 0
- Suppression of intrusions, Partial (number of patients) [1, 13]: 5
- Suppression of nightmares (N = 24) [1, 13]: 60% (3/5)
- Suppression of nightmares, Full (number of patients) [1, 13]: 0
- Suppression of nightmares, Partial (number of patients) [1, 13]: 3
- Time to onset of response, Partial, mean ± SD [1, 13]: 12.6 ± 15.7 days
- Time to onset of response, Partial, median [1, 13]: (7.0) days
- Dosage of topiramate, Partial response (threshold dosage), mean ± SD [1, 14]: 70.0 ± 51.2 mg/day
- Dosage of topiramate, Partial response, median [1, 14]: 75.0 mg/day
- Time to onset of response, Partial, mean ± SD [1, 14]: 13 ± 15.7 days
- Time to onset of response, Partial, median [1, 14]: 7.0 days
- Dosage of topiramate, Full response, mean ± SD [1, 15]: 78.6 mg/day
- Dosage of topiramate, Full response, median [1, 15]: (50.0) mg/day
- Dosage of topiramate, Partial response (threshold dosage), mean ± SD [1, 15]: 32.8 mg/day
- Dosage of topiramate, Partial response, median [1, 15]: (25.0) mg/day
- Suppression of intrusions (N = 35) [1, 15]: 89%
- Suppression of intrusions, Full (number of patients) [1, 15]: 22
- Suppression of intrusions, Partial (number of patients) [1, 15]: 3
- Suppression of nightmares (N = 24) [1, 15]: 84%
- Suppression of nightmares, Full (number of patients) [1, 15]: 14
- Suppression of nightmares, Partial (number of patients) [1, 15]: 2
- Time to onset of response, Full, mean ± SD [1, 15]: 35.3 days
- Time to onset of response, Full, median [1, 15]: (8.0) days
- Time to onset of response, Partial, mean ± SD [1, 15]: 10.3 days
- Time to onset of response, Partial, median [1, 15]: (4.0) days
- Time to onset of response, Partial, mean ± SD [1, 16]: 10 ± 12.7 days
- Time to onset of response, Partial, median [1, 16]: 4.0 days
- Global full response rate (suppression of both nightmares and intrusions) ([1]; all 35 patients): 63%
- Global full response, number of patients ([1]; all 35 patients): 22 patients
- Global partial response rate ([1]; all 35 patients): 23%
- Global partial response, number of patients ([1]; all 35 patients): 8 patients
- Response rate, full/partial ([1]; all patients): 86%
- Additional patients reporting a full response by the third week of treatment ([1]; by the third week): 3 patients
- Response rate, full ([1]; hallucinatory group): 0%
- Response rate, partial ([1]; hallucinatory group): 83%
- Response rate, full ([1]; non-hallucinatory subgroup): 79%
- Response rate, full/partial ([1]; non-hallucinatory subgroup): 89%
- Patients reporting a full response within 1 week of treatment ([1]; within 1 week of treatment): 10 patients
- Seizure block in animal model of kindled epilepsy (kindled epilepsy): effectively block seizures
